Source: patent US10023864B2, “Methods of treating a metabolic syndrome by modulating heat shock protein (HSP) 90-beta” (Berg LLC, priority 2014, dated 2018)
Entries after “also recorded” stand apart in the source; their conditions may differ. d = 2'-deoxy (DNA); m = 2'-O-methyl

Columns and labels:
HSMM myotubes [1] = assay: Insulin signaling experiments in HSMM myotubes (western blot of phosphorylated Akt, ERK, GSK3β); type: cell-based, human
Method: Human HSMM myotubes cells that were plated in 12 well plates the previous week were used. The media was aspirated and fresh media with appropriate dilutions of the NC and H3 siRNA for Hsp90 knockdown were added such that the final concentration in the wells of the plate was 100 nM. Minis TKO transfection reagent was used for transfecting the cells. The plate was then incubated at 37° C. overnight.
The media was aspirated and the cells were washed off twice—first with warm PBS and second with 0.1% BSA containing growth media. The cells were then serum starved for 2-3 hours in 0.1% differentiation media containing the appropriate inhibitors at 37° C. followed by insulin stimulation for 5 minutes (0, 10, and 100 nM insulin).
The wells were then washed once with PBS and harvested into 100 μl of RIPA buffer containing protease and phosphatase inhibitors. The plate was placed on ice and, using a cell scraper, the cells were scraped from the plate. The lysates were collected in 1.5 ml Eppendorf tubes and homogenized by using a syringe and needle. The lysates were then centrifuged at 4° C. for 10 mins at 14,000 RPM. The lysates can be stored at −20° C. for future use.
Protein content was estimated by BCA assay and samples were prepared for gel electrophoresis and western blotting as described in subsequent sections. The total volume required to load 10 μg of total protein was calculated.
The samples were loaded onto a bis-tris or a tris-glycine-SDS gel. Proteins were transferred to a PVDF or a nitrocellulose membrane using routine wet or dry transfer methods. The membranes were then blocked for at least an hour using the blocking buffer. The membranes were then cut prior to exposure to the appropriate primary antibodies diluted in blocking buffer for incubation. Primary antibodies to pAKT (p-Akt, S473), pERK(p-Erk, Phospho-p44/42 MAPK (Erk1/2) (Thr202/Tyr204), and pGSK3β (Phospho-GSK-3β (Ser9) were obtained from Cell Signaling Inc.® Other antibodies were also obtained from commercial sources. The membrane was placed in the shaker and incubated in the refrigerator (4° C.) overnight.
Visualization of proteins and quantification of western blots was performed as follows. The membranes were washed thrice using 1×PBS-T (10 minutes each). […]
Each strip of membrane was taken out arranged in a clean flat surface. […] The bands were quantified using the BIORAD® software.
HSMM myotubes were sequentially (1) transfected with 3 different siRNAs targeting HSP90AB1 for 48 hours, (2) serum starved for 3 hours, and (3) subjected to stimulation of different concentrations of insulin (0, 10, 100 nM). Signaling events downstream of insulin stimulation were assessed by western blotting for levels of total and phosphorylated Akt, Erk, and GSK3β. […]

HSMM myotubes [2] = assay: Seahorse bioenergetic profiling of myotubes (OCR); type: cell-based, human
HSP90α and HSP90β = conditions: HSP90α vs HSP90β; cited from earlier work
human Hsp90AB1 protein = assay: Knockdown of Hsp90AB1 protein in HSMM by Western blotting; type: cell-based; conditions: Western blot, normalized to actin, vs NC1
Method: ASO1-ASO6 were tested for their ability to knock down human Hsp90AB1 levels in HSMM myotubes. The effectiveness of oligonucleotides ASO1 (A1), ASO2 (A2) ASO3 (A3) ASO4 (A4) ASO5 (A5) and ASO6 (A6) in knocking down the expression of HSP90AB1 protein is shown by Western blotting in FIGS. 19A and 19B. The oligonucleotide NC1 was used as a negative control. HSP90Ab1 protein levels were normalized to the levels of actin.
(§1) The ASO oligonucleotides ASO5, ASO13 and ASO18 were tested for their ability to reduce expression of human Hsp90AB1 protein in human skeletal muscle myotubes (HSMM) and C2C12 mouse myoblasts by Western blotting. ASO5 was derived from the mouse HSP90ab1 gene, while ASO13 and ASO18 were directed to the human HSP90ab1 gene. The oligonucleotide NC1 was used as a negative control. HSP90AB1protein levels were normalized to the levels of actin.

DIO mice [3] = assay: Heat production in DIO mice; type: in vivo, mouse; conditions: eight weeks treatment
Method: The CLAMS (Columbus Instruments, Columbus, Ohio, USA) metabolic monitoring cages are used to simultaneously monitor horizontal and vertical activity, feeding and drinking, oxygen consumption, and CO2 production. ASO injected and control mice are individually placed in CLAMS cages and monitored over a 4-day period after acclimation to the cages for 1-2 days. The various parameters are recorded in both fasted and fed conditions. Food and water consumption are measured directly as accumulated data. Hourly files display all measurements for each parameter: volume of oxygen consumed, ml/kg per h (VO2), volume of carbon dioxide produced, ml/kg per h (VCO2), respiratory exchange ratio, heat (kcal/h), accumulated food (g), accumulated drink (g), XY total activity (all horizontal beam breaks in counts), XY ambulatory activity (minimum three different, consecutive horizontal beam breaks in counts), and Z activity (all vertical beam breaks in counts). The data are recorded during the 30-s sampling period. The CLAMS data are analyzed by normalizing with lean body mass.

[4] = system: Hsp90AB1 protein in C2C12 mouse myoblasts; assay: Hsp90AB1 protein expression in C2C12 mouse myoblasts by Western blotting; type: cell-based; conditions: Western blot, normalized to actin, vs NC1
Method: as §1

DIO mice [5] = assay: Insulin level in DIO mice; type: in vivo, mouse
Method: The mice were divided into four groups: (1) lean (non-diabetic control); (2) diabetic receiving control ASO (NC-ASO); (3) diabetic receiving ASO5; and (4) diabetic receiving ASO6. In various experiments mice were dosed intra-peritoneally with twice per week injection of ASO at […] body weight for 4 or 8 weeks. Skeletal muscles were subjected to quantitative PCR.
Further, the effect of the reduction of Hsp90ab1 protein level on plasma insulin levels was examined.

CCc1cc(-c2n[nH]c(C)c2-c2ccc3c(c2)OCCO3)c(O)cc1O [CCT018159]
effect on insulin signaling and bioenergetics compared with HSP90β knockdown alone (HSMM myotubes [1]): less profound effect | level of pERK (HSMM myotubes [1]; CCT018159 and insulin): No significant changes; also recorded: no change | level of pGSK3β (HSMM myotubes [1]; CCT018159 and insulin): No significant changes; also recorded: no change | insulin stimulated phosphorylation of Akt (phospho-AKT) (HSMM myotubes [1]; CCT018159 then insulin, effect at the higher concentration, 10 uM): increase; also recorded: significantly enhanced | CCCP induced uncoupling response on mitochondrial metabolism (HSMM myotubes [2]; CCT018159 at 1 μM, 3 μM, and 10 μM (FIG. 10 legend)): did not have a significant effect | uncoupled OCR (HSMM myotubes [2]; myotubes, CCT018159 1 μM): increased | uncoupled (CCCP induced) OCR (HSMM myotubes [2]; myotubes, CCT018159, 10 uM induced greater suppression): decreased in a concentration dependent manner | basal OCR (HSMM myotubes [2]; myotubes, CCT018159 at different concentrations): no observed change

O=C(O)/C=C/c1nn(Cc2ccc(Cl)cc2Cl)c2cc(C(F)(F)F)ccc12 [gamendazole]
HSP90 isoform preference (HSP90α and HSP90β): specific for HSP90β

C[C@@H]1C[C@H]2O[C@@H]2/C=C\C=C\C(=O)Cc2c(Cl)c(O)cc(O)c2C(=O)O1 [radicicol]
HSP90 isoform preference (HSP90α and HSP90β): HSP90β is more sensitive

NVP-HS990
HSP90 isoform preference (HSP90α and HSP90β): inhibit both the HSP90α and HSP90β isoforms

mA*mC*mU*mU*mC*mC*T*T*G*A*C*C*C*T*C*C*T*C*mU*mC*mC*mU*mC*mC (antisense ACUUCCTTGACCCTCCTCUCCUCC; sugars from the 5' end m6 d12 m6, all phosphorothioate, methylation of C not given here) [ASO3, modified antisense oligonucleotide derived from the mouse HSP90AB1 gene]
level of HSP90ab1 protein (human Hsp90AB1 protein): effective

mA*mU*mC*mU*mC*mC*T*T*C*T*C*C*C*G*T*T*C*C*mU*mU*mC*mU*mC*mC (antisense AUCUCCTTCTCCCGTTCCUUCUCC; sugars from the 5' end m6 d12 m6, all phosphorothioate, methylation of C not given here) [ASO2, modified antisense oligonucleotide derived from the mouse HSP90AB1 gene]
level of HSP90ab1 protein (human Hsp90AB1 protein): effective | heat production (DIO mice [3]): improves

mA*mU*mG*mC*mC*mC*T*G*A*A*T*T*C*C*A*A*C*T*mG*mA*mC*mC*mU*mU (antisense AUGCCCTGAATTCCAACTGACCUU; sugars from the 5' end m6 d12 m6, all phosphorothioate, methylation of C not given here) [ASO18, modified ASO designed on homology among mouse, monkey and human HSP90ab1 genes]
level of HSP90ab1 protein (human Hsp90AB1 protein): significantly decreased; also recorded: significantly reduced | Hsp90AB1 protein expression [4]: significantly decreased; also recorded: significantly reduced

mC*mC*mA*mC*mU*mU*C*C*T*T*G*A*C*C*C*T*C*C*mU*mC*mU*mC*mC*mU (antisense CCACUUCCTTGACCCTCCUCUCCU; sugars from the 5' end m6 d12 m6, all phosphorothioate, methylation of C not given here) [ASO5, modified antisense oligonucleotide derived from the mouse HSP90AB1 gene]
fed insulin levels (DIO mice [5]): significant reduction | Hsp90AB1 protein expression [4]: did not significantly reduce

mC*mU*mC*mU*mU*mC*C*T*C*T*G*C*C*T*C*A*T*C*mA*mU*mC*mA*mC*mU (antisense CUCUUCCTCTGCCTCATCAUCACU; sugars from the 5' end m6 d12 m6, all phosphorothioate, methylation of C not given here) [ASO13, modified ASO designed on homology among mouse, monkey and human HSP90ab1 genes]
level of HSP90ab1 protein (human Hsp90AB1 protein): significantly decreased; also recorded: significantly reduced | Hsp90AB1 protein expression [4]: significantly decreased; also recorded: significantly reduced

mC*mU*mU*mC*mC*mU*T*G*A*C*C*C*T*C*C*T*C*T*mC*mC*mU*mC*mC*mA (antisense CUUCCUTGACCCTCCTCTCCUCCA; sugars from the 5' end m6 d12 m6, all phosphorothioate, methylation of C not given here) [ASO4, modified antisense oligonucleotide derived from the mouse HSP90AB1 gene]
level of HSP90ab1 protein (human Hsp90AB1 protein): effective

mU*mC*mU*mC*mC*mU*T*C*T*C*C*C*G*T*T*C*C*T*mU*mC*mU*mC*mC*mA (antisense UCUCCUTCTCCCGTTCCTUCUCCA; sugars from the 5' end m6 d12 m6, all phosphorothioate, methylation of C not given here) [ASO1, modified antisense oligonucleotide derived from the mouse HSP90AB1 gene]
level of HSP90ab1 protein (human Hsp90AB1 protein): effective | heat production (DIO mice [3]): improves
